According to article PMC2560999, “A-Type GABA Receptor as a Central Target of TRPM8 Agonist Menthol” (PLoS ONE, 2008):

Test system: T1, GABAA receptor (GABAAR), native, cultured rat hippocampal neurons
T1 construct: gene Gabra1; native receptors of unresolved subunit composition in primary cultured hippocampal neurons (12-16 DIV for firing recordings)
Assay: whole-cell patch clamp, peak current
Format: cell-based
Settings: direct activation without GABA; holding potential −50 mV; pH 7.3

CC(C)[C@@H]1CC[C@@H](C)C[C@H]1O [menthol]
EC50: 490 µM
